Test results published in patent US8685970B2, “Quinolines and related analogs as sirtuin modulators” (GlaxoSmithKline, LLC, priority 2008, dated 2014).

Biological target: T1, SIRT1 (Homo sapiens, UniProt Q96EB6)
T1 sequence (Q96EB6 1-747): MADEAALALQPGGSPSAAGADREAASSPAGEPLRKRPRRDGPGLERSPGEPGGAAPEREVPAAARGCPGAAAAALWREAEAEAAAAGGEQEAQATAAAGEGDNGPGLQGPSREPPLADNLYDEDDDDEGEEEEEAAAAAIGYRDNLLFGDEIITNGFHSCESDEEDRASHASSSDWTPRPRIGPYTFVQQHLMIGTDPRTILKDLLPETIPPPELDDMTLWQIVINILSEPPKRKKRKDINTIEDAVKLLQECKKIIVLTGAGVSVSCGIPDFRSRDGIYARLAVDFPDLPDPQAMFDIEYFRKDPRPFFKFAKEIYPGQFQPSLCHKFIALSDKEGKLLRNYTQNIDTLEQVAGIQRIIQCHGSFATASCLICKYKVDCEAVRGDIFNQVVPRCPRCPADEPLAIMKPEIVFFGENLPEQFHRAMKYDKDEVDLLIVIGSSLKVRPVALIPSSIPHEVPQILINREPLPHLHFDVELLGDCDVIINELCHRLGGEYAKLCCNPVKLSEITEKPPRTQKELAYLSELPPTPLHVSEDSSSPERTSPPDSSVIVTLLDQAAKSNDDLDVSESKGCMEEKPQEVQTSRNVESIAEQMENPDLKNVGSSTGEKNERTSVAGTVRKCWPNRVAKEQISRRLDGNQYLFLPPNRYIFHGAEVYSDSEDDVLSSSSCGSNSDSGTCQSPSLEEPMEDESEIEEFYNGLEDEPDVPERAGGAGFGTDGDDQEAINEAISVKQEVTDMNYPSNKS
Experiment: Mass spectrometry based SIRT1 deacetylation assay (activation)
Format: biochemical
Details: 10 nM SIRT1, 0.5 μM peptide substrate, 120 μM βNAD+, 25 min at 25° C.
Excerpt: A mass spectrometry based assay was used to identify modulators of SIRT1 activity. The mass spectrometry based assay utilizes a peptide having 20 amino acid residues as follows: Ac-EE-K (biotin)-GQSTSSHSK (Ac)N1eSTEG-K(5TMR)-EE-NH2 (SEQ ID NO: 1) wherein K(Ac) is an acetylated lysine residue and Nle is a norleucine. The peptide is labeled with the fluorophore 5TMR (excitation 540 nm/emission 580 nm) at the C-terminus. The sequence of the peptide substrate is based on p53 with several modifications. In addition, the methionine residue naturally present in the sequence was replaced with the norleucine because the methionine may be susceptible to oxidation during synthesis and purification.
The mass spectrometry assay is conducted as follows: 0.5 μM peptide substrate and 120 μM βNAD^+ is incubated with 10 nM SIRT1 for 25 minutes at 25° C. in a reaction buffer (50 mM Tris-acetate pH 8, 137 mM NaCl, 2.7 mM KCl, 1 mM MgCl2, 5 mM DTT, 0.05% BSA). Test compounds may be added to the reaction as described above. The SirT1 gene is cloned into a T7-promoter containing vector and transformed into BL21(DE3). After the 25 minute incubation with SIRT1, 10 μL of 10% formic acid is added to stop the reaction. Reactions are sealed and frozen for later mass spec analysis. Determination of the mass of the substrate peptide allows for precise determination of the degree of acetylation (i.e. starting material) as compared to deacetylated peptide (product).
A control for inhibition of sirtuin activity is conducted by adding 1 μL of 500 mM nicotinamide as a negative control at the start of the reaction (e.g., permits determination of maximum sirtuin inhibition). A control for activation of sirtuin activity is conducted using 10 nM of sirtuin protein, with 1 μL of DMSO in place of compound, to determine the amount of deacetylation of the substrate at a given timepoint within the linear range of the assay. This timepoint is the same as that used for test compounds and, within the linear range, the endpoint represents a change in velocity.
For the above assay, SIRT1 protein was expressed and purified as follows. The SirT1 gene was cloned into a T7-promoter containing vector and transformed into BL21(DE3). The protein was expressed by induction with 1 mM IPTG as an N-terminal His-tag fusion protein at 18° C. overnight and harvested at 30,000×g. Cells were lysed with lysozyme in lysis buffer (50 mM Tris-HCl, 2 mM Tris[2-carboxyethyl]phosphine (TCEP), 10 μM ZnCl2, 200 mM NaCl) and further treated with sonication for 10 min for complete lysis. The protein was purified over a Ni-NTA column (Amersham) and fractions containing pure protein were pooled, concentrated and run over a sizing column (Sephadex S200 26/60 global). The peak containing soluble protein was collected and run on an Ion-exchange column (MonoQ). Gradient elution (200 mM-500 mM NaCl) yielded pure protein. This protein was concentrated and dialyzed against dialysis buffer (20 mM Tris-HCl, 2 mM TCEP) overnight. The protein was aliquoted and frozen at −80° C. until further use.
Sirtuin modulating compounds that activated SIRT1 were identified using the assay described above and are shown below in Table 1. The EC1.5 values represent the concentration of test compounds that result in 150% activation of SIRT1. The EC1.5 values for the activating compounds are represented by A (EC1.5<1.0 uM), B (EC1.5 1-25 uM), C (EC1.5>25 uM). The percent maximum fold activation is represented by A (Fold activation >200%) or B (Fold Activation <200%). “NT” indicates the compound was not tested in a particular assay.

EC1.5 (concentration of test compound that results in 150% activation of SIRT1) | % Fold Act. (percent maximum fold activation) | SMILES
A (EC1.5<1.0 uM) | A (Fold activation >200%) | Cc1cc(C)nc(NC(=O)c2cccc3ccc(-c4cccc(C(F)(F)F)c4)nc23)c1 [Compound 53]
B (EC1.5 1-25 uM) | B (Fold Activation <200%) | O=C(NCc1ccncc1)c1cccc2ccc(-c3cccc(C(F)(F)F)c3)nc12 [Compound 37]
A (EC1.5<1.0 uM) | A (Fold activation >200%) | O=C(Nc1nc(CN2CCOCC2)cs1)c1cccc2ccc(-c3cccc(C(F)(F)F)c3)nc12 [Compound 177]
A (EC1.5<1.0 uM) | A (Fold activation >200%) | COC(=O)c1ccc(NC(=O)c2cccc3ccc(-c4cccc(C(F)(F)F)c4)nc23)o1 [Compound 61]
C (EC1.5>25 uM) |  | FC(F)(F)c1cccc(-c2ccc3cccc(CNc4nccs4)c3n2)c1 [Compound 104]
C (EC1.5>25 uM) | B (Fold Activation <200%) | O=C(N[C@H]1CCNC1)c1cccc2ccc(-c3cccc(C(F)(F)F)c3)nc12 [Compound 72]
A (EC1.5<1.0 uM) | A (Fold activation >200%) | O=C(Nc1ccccn1)c1cccc2ccc(-c3cccc(OC(F)(F)F)c3)nc12 [Compound 24]
C (EC1.5>25 uM) |  | Fc1ccc(-c2ccc3cccc(NCc4cccnc4)c3n2)cc1C(F)(F)F [Compound 166]
C (EC1.5>25 uM) |  | O=S(=O)(Nc1cccnc1)Nc1cccc2ccc(-c3cccc(OC(F)(F)F)c3)nc12 [Compound 114]
A (EC1.5<1.0 uM) | A (Fold activation >200%) | O=C(Nc1nc2ccccc2s1)c1cccc2ccc(-c3cccc(C(F)(F)F)c3)nc12 [Compound 55]
A (EC1.5<1.0 uM) | B (Fold Activation <200%) | O=C(Nc1ccccn1)Nc1cccc2ccc(-c3cccc(OC(F)(F)F)c3)nc12 [Compound 46]
C (EC1.5>25 uM) |  | O=C(Nc1cccc2ccc(-c3cc(F)cc(C(F)(F)F)c3)nc12)c1ccccn1 [Compound 159]
C (EC1.5>25 uM) |  | FC(F)(F)Oc1cccc(-c2ccc3cccc(NCc4cccnc4)c3n2)c1 [Compound 139]
C (EC1.5>25 uM) |  | Cc1cc(-c2ccc3cccc(C(=O)Nc4nccs4)c3n2)ccn1 [Compound 223]

Second part, the compound before the results:

SMILES | EC1.5 (concentration of test compound that results in 150% activation of SIRT1) | % Fold Act. (percent maximum fold activation)
O=C(Nc1ccc(F)cn1)c1cccc2ccc(-c3cccnc3)nc12 [Compound 265] | C (EC1.5>25 uM) | 
O=C(Nc1cccnc1)c1cccc2ncc(-c3cccc(OC(F)(F)F)c3)nc12 [Compound 126] | B (EC1.5 1-25 uM) | B (Fold Activation <200%)
Cc1csc(NC(=O)c2cccc3ccc(-c4cccc(N5CCOCC5)c4)nc23)n1 [Compound 238] | A (EC1.5<1.0 uM) | A (Fold activation >200%)
O=C(Nc1nc(CN2CCOCC2)cs1)c1cccc2ccc(-c3ccccc3C(F)(F)F)nc12 [Compound 274] | A (EC1.5<1.0 uM) | A (Fold activation >200%)
c1cncc(CNc2cccc3ccc(-c4cccc(N5CCCC5)c4)nc23)c1 [Compound 173] | C (EC1.5>25 uM) | 
O=C(Nc1cccnc1)c1cccc2cc(C(F)(F)F)c(-c3ccccc3)nc12 [Compound 193] | C (EC1.5>25 uM) | 
O=C(Nc1cccc2ccc(-c3ccc(N4CCOCC4)nc3)nc12)c1cscn1 [Compound 246] | B (EC1.5 1-25 uM) | A (Fold activation >200%)
Cc1cc(NC(=O)c2cccc3ccc(-c4cccnc4)nc23)sn1 [Compound 236] | C (EC1.5>25 uM) | 
Cc1nnc(NC(=O)c2cccc3ccc(-c4cccnc4)nc23)s1 [Compound 235] | C (EC1.5>25 uM) | 
O=C(Nc1ncnc2ccc(-c3cccc(OC(F)(F)F)c3)nc12)c1cscn1 [Compound 301] | A (EC1.5<1.0 uM) | A (Fold activation >200%)
O=C(Nc1cccc2ccc(-c3cc(F)cc(C(F)(F)F)c3)nc12)c1cnccn1 [Compound 156] | C (EC1.5>25 uM) | 
O=C(Nc1nc(CN2CCOCC2)cs1)c1cccc2ccc(-c3cccnc3)nc12 [Compound 190] | A (EC1.5<1.0 uM) | A (Fold activation >200%)
CS(=O)(=O)c1cccc(-c2ccc3cccc(NC(=O)c4cscn4)c3n2)c1 [Compound 81] | A (EC1.5<1.0 uM) | A (Fold activation >200%)
Cc1cccc(NC(=O)c2cccc3ccc(-c4cccc(N5CCOCC5)c4)nc23)n1 [Compound 268] | A (EC1.5<1.0 uM) | A (Fold activation >200%)
O=C(Nc1ccccn1)c1cccc2ncc(-c3ccccc3)nc12 [Compound 118] | B (EC1.5 1-25 uM) | B (Fold Activation <200%)
Cc1nnc(NC(=O)c2cccc3ccc(-c4cccc(N5CCOCC5)c4)nc23)s1 [Compound 252] | A (EC1.5<1.0 uM) | A (Fold activation >200%)
O=C(Nc1ccncn1)c1cccc2ccc(-c3ccccc3C(F)(F)F)nc12 [Compound 87] | A (EC1.5<1.0 uM) | A (Fold activation >200%)
Cc1cncc(-c2ccc3cccc(C(=O)Nc4cccc(CN5CCOCC5)c4)c3n2)c1 [Compound 243] | A (EC1.5<1.0 uM) | A (Fold activation >200%)
